Test results published in patent US12673039B2, “Methods of inducing autophagy using coumarin derivatives and related compounds” (Buck Institute for Research on Aging, priority 2019, dated 2026).

Legend:
human FXR = biological target: T1, human FXR (Homo sapiens, UniProt Q96RI1); experiment: Human FXR antagonist reporter assay; assay type: cell-based
T1 construct: purchased Cayman
T1 sequence (Q96RI1 1-486): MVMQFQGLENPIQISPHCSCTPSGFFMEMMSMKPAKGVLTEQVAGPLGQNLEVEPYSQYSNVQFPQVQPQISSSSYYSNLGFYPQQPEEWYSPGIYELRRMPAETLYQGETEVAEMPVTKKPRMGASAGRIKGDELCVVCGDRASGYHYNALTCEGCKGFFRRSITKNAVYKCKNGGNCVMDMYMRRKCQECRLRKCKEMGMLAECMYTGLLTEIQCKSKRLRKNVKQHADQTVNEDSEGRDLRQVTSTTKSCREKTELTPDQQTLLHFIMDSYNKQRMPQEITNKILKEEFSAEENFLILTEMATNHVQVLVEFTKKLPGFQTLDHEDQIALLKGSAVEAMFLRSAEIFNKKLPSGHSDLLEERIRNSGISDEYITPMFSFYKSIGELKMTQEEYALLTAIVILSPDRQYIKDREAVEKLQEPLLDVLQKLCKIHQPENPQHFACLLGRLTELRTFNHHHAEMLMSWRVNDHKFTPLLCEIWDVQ
Description: FIG. 7 illustrates that coumarin 106 (“C1”, “AIC106”) acts as a potent FXR antagonist. The ability of C1 (AIC106) (10 μM and 30 μM) to inhibit activation of the FXR agonist […] (GW, 150 μM) was interrogated using a commercially available kit (Indigo Biosciences) versus the established natural FXR ligands TUDCA and UDCA (50 μM and 100 μM). Values are fold induction versus untreated controls; ****p<0.01 versus GW; **p<0.05 versus GW.
FIG. 23, panels A-H: FXR modulation enhances HLH-30 expression in human neuronal SH-SY5Y cells. Panel A) Effects of AIC106 on human FXR activity was determined in a mammalian one-hybrid based kit assay by quantifying changes in the luciferase activity of FXR ligand (GW4064, GW) induced treatment. […] Panel B) Protein expression of TFEB, cathepsin-D (CAT-D) and small heterodimer partner-1 (SHP-1) was determined by immunoblot in neuronal SH-SY5Y cells post-24 hours of treatment with AIC106 and DMSO-control. […] Autophagic flux in DMSO-control and AIC106 treated neuronal cells was determined by quantifying levels of autophagosome specific LC3-II protein both in presence and absence of autophagy inhibitor bafliomycin A1 (Baf A, 10 nM). […]
Antagonistic activity of the AIC106 on human FXR was determined using a commercially available FXR Human reporter assay kit (Cayman) according to the supplied manual. […] Luminescence was quantified. […]

human TFEB promoter = experiment: TFEB promoter secreted-luciferase assay in rat N27 neuronal cells; assay type: cell-based; settings: 24 hour treatment, versus DMSO-control (FIG. 18, panel A)
Description: FIG. 18, panels A-F: AIC106 (Autophagy Inducing Coumarin-106) induces transcription of TFEB and its targets in vitro in rat N27 neuronal cells and in vivo in C. elegans. Panel A) Relative fold change in TFEB promoter activity compared to DMSO-control was determined by quantifying luciferase activity in supernatants collected from rat N27 neuronal cells post-24 hour treatment with C1 (AIC106), D1 and D2. [n=3 independent experiments (mean±SEM), **p<0.01, by one-way ANOVA with Dunnett's multiple comparisons test]. Panel B) Chemical structure of AIC106 and its structural derivative D1 and D2. Panel C) Relative fold change in mRNA of tfeb and its targets compared to DMSO-control were quantified using qRT-PCR in N27 neuronal cells post-24 hour treatment with AIC106 [N=3 independent experiments (mean±SD). *p<0.05, **p<0.01 and ****p<0.0001, by two-way ANOVA with Sidak's multiple comparisons test]. Panel D) Changes in HLH-30 expression were measured by quantifying GFP intensity in an individual GFP-tagged HLH-30 strain (MAH235) post-24 hours treatment with AIC106 and DMSO-control. […] Panel E) HLH-30; GFP (MAH235) were monitored by fluorescence microscopy. Panel F) Relative fold change in mRNA of hlh-30 and its targets compared to DMSO-control were quantified using qRT-PCR in young adult wild type N2 worms post-24 hours treatment with AIC106. […]

O=c1oc2c3c4c(cc2c2c1CCC2)CCCN4CCC3 [C1, 2,3,6,7,10,11-Hexahydro-1H,5H-cyclopenta(3,4)(1)benzopyrano(6,7,8-ij)quinolizin-12(9H)-one]
FXR activation elicited by the FXR agonist GW4064 (human FXR; C1 10 μM and 30 μM versus TUDCA and UDCA (FIG. 7)): significantly inhibited FXR activation
ligand-induced activation of human FXR (human FXR; FXR ligand GW4064 (FIG. 23, panel A)): prevented ligand-induced activation of the human FXR protein
luciferase transcription (TFEB promoter activity) (human TFEB promoter): 6-7 fold
